{"source": "patent US12385042B2", "about": "“Cell-penetrating peptides” (VECTIOPEP OÜ, priority 2019, dated 2025)", "key": {"CHO cells": {"test_system": "CHO cells", "experiment": "pDNA (p-CMV-Luc2) transfection with CPP/pDNA complexes", "type": "cell-based", "conditions": "serum containing medium, CR1 to CR4, 24 h", "experimental": "For the pDNA transfection experiment, CPP/pDNA nanoparticles were prepared by mixing […] of plasmid (p-CMV-Luc2) with the peptide in MQ water. Charge ratios from 1 to 4 (CR, equivalent to the nitrogen-to-phosphate ratio) were used. 50,000 CHO cells were seeded 24 hr before the experiment into 24-well plates, treated with complexes for 4 h in serum-containing medium, incubated for additional 20 hr, lysed and luminescence was measured."}, "[1]": {"test_system": "subcutaneous U87MG tumor xenograft", "experiment": "Biodistribution of CPP/Cy5-siRNA nanoparticles, U87 tumor", "type": "in vivo, mouse", "conditions": "peak at 3 h", "experimental": "Human tumor xenografts (subcutaneous U87MG and HT-1080) were induced in mice (Hsd: Athymic Nude-Foxn1nu female, 2.5 month old, Harlan, UK). The xenografting was performed by implanting the cell suspension (1×10^6 cells in 100 ul volume of ice-cold DMEM without any supplements) subcutaneously to the flank.\nAt the appearance of tumor size of approx. 100 mm^3, mice were injected i.v. (via tail vein) with the CPP/siRNA complexes. Each animal received a single 200 ul i.v. injection of 20 ug Cy5-siRNA, formulated with CPPs at MR20 or MR40. As a control, 20 μg of un-complexed Cy5-labeled siRNA was administered. The biodistribution of Cy5-siRNA and CPP/Cy5-siRNA complexes was evaluated at different time points −0.5 h up to 6 h. For that, mice (n=2 in each treatment group) were imaged in vivo using IVIS Lumina II (CaliperLS, USA). Cy-5 fluorescence intensity values were acquired from the tumor region."}}, "note": "Where a SMILES comes first, the peptide text is derived from it. Bridges are numbered along the chain shown (N, C = ends). Roman numbers before positions name the chains, in order. [ ]: non-standard residue; d: D form. The star is where a group is joined. Stearoyl = CCCCCCCCCCCCCCCCCC(=O)*; Orn = NCCC[C@H](N)C(=O)O"}
{"smiles": "CCCCCCCCCCCCCCCCCC(=O)N[C@@H](Cc1c[nH]cn1)C(=O)N[C@@H](Cc1c[nH]cn1)C(=O)N[C@@H](Cc1ccc(O)cc1)C(=O)N[C@@H](Cc1c[nH]cn1)C(=O)N[C@@H](Cc1c[nH]cn1)C(=O)NCC(=O)NCCC[C@H](N)C(=O)N[C@H](C(=O)N[C@@H](CC(C)C)C(=O)N[C@@H](CC(C)C)C(=O)N[C@@H](CCCCN)C(=O)N[C@@H](C)C(=O)N[C@@H](CC(C)C)C(=O)N[C@@H](CCCCN)C(=O)N[C@@H](C)C(=O)N[C@@H](CC(C)C)C(=O)N[C@@H](C)C(=O)N[C@@H](CCCCN)C(=O)N[C@@H](C)C(=O)N[C@H](C(=O)N[C@@H](CC(C)C)C(N)=O)[C@@H](C)CC)[C@@H](C)CC", "note": "[NF71] (I: H-[Orn]ILLKALKALAKAIL-NH2 / II: Stearoyl-HHYHHG; amide I:1-II:C)", "values": [{"measurement": "pDNA delivery / gene expression in vitro (in words)", "setting": "CHO cells", "value": "promising vectors for pDNA transfection"}, {"measurement": "peak accumulation in U87 tumor relative to naked Cy5-siRNA", "setting": "[1]", "value": 27, "unit": "fold"}]}
